US20040024024A1, “Aromatic sulfone hydroxamates and their use as protease inhibitors” (priority 2001, published 2004)

Assays:
Human recombinant MMP-2 = biological target: T1, Human recombinant MMP-2 (Homo sapiens, UniProt P08253); experiment: In vitro MMP inhibition, IC50 determination (fluorogenic substrate I); format: biochemical
T1 construct: made in house; host or cells: MMP-2-transfected p2AHT2 cells
T1 sequence (P08253 110-660): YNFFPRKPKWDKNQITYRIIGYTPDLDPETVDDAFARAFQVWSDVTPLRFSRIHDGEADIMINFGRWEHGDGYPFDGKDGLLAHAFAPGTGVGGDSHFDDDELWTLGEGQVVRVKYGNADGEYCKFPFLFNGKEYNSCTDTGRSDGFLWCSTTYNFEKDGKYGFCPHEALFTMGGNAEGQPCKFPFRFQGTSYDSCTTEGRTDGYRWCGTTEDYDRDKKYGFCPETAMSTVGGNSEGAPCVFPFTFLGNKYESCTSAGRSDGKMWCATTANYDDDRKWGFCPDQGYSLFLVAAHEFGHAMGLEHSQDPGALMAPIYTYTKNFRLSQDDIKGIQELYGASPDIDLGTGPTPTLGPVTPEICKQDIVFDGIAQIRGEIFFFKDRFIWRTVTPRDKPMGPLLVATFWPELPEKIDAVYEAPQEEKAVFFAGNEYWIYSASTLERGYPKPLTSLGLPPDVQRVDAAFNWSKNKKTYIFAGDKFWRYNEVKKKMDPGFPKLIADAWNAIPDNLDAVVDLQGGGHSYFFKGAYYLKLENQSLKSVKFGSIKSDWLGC
Description: (§1) Several hydroxamates and salts thereof were analyzed in in vitro assays to determine their ability to inhibit the MMP cleavage of peptide substrates. Inhibition (Ki) and IC50 constants were calculated from the assayed hydroxamate-MMP interactions.
(§2) Human recombinant MMP-1, MMP-2, MMP-9, MMP-13, and MMP-14 were used in this assay. All enzymes were prepared in Assignee's laboratories following usual laboratory procedures. Protocols for the preparation and use of these enzymes are available in the scientific literature. See, e.g., Enzyme Nomenclature (Academic Press, San Diego, Calif., 1992) (and the citations therein). See also, Frije et al., J. Biol. Chem., 26(24), 16766-73 (1994).
The MMP-2 proenzyme was purified by gelatin Sepharose chromatography from MMP-2-transfected p2AHT2 cells provided by Dr. Gregory Goldberg of Washington University (St. Louis, Mo.).
(§3) All MMPs were activated using 4-aminophenylmercuric acetate (“APMA”, Sigma Chemical, St. Louis, Mo.) or trypsin. MMP-9 also was activated using human recombinant MMP-3 (purified in Assignee's laboratory following standard cloning and purification techniques).
(§4) Two fluorogenic, methoxycoumarin-containing polypeptide substrates were used in the MMP inhibition assays:
(§5) MCA-ProLeuGlyLeuDpaAlaArgNH2 (I)
(§6) Here, “Dpa” is 3-(2,4-dinitrophenyl)-L-2,3-diaminopropionyl group, and “MCA” is 7-methoxycoumarin-4-yl acetyl. Substrate (I) was purchased from Baychem (Redwood City, Calif.), and substrate II was prepared Assignee's laboratory. Substrate I was used in the IC50 determination assays, while substrate II was used in the Ki determination assays. In the absence of MMP inhibitory activity, either substrate is cleaved at the Gly-Leu peptide bond. This cleavage separates the highly fluorogenic peptide from the 2,4-dinitrophenyl quencher, thus resulting in increase of fluorescent intensity.
(§7) The stock solutions of the assayed hydroxamates (or salts thereof) were prepared in 1% dimethyl sulfoxide (DMSO). These stock solutions were diluted in Buffer A (100 mM Tris-HCl, 100 mM NaCl, 10 mM CaCl2, 0.05% polyoxyethylene 23 lauryl ether, pH 7.5) to obtain solutions with different hydroxamate concentrations, i.e., assay solutions with different concentrations of the assayed MMP inhibitory compound. The experiment controls contained the same amount of Buffer A/DMSO as the assayed sample, but contained no hydroxamate (or salt thereof).
(§8) The assays from which the IC50 determinations were made were performed as follows. The MMPs were activated with either trypsin or APMA (4-aminophenylmercuric acetate, Sigma Chemical, St. Louis, Mo.). The assayed hydroxamate samples were, incubated in Microfluorrm White Plates (Dynatech, Chantilly, VA) and analyzed on a Perkin Elmer L550 plate reader (Norwalk, Conn.). The excitation wavelength was 328 nm, and the emission wavelength—415 nm. All samples (assayed hydroxamates and controls) were incubated in separate plates at room temperature in the presence of 4 μM of MMP substrate (I). As stated in the previous paragraph, samples containing varying concentrations of the same assayed hydroxamate were prepared. Inhibition was measured as a reduction in fluorescent intensity as a function of MMP inhibitor concentration.

Human recombinant MMP-13 = biological target: T2, Human recombinant MMP-13 (Homo sapiens, UniProt P45452); experiment: as above; format: biochemical
T2 construct: made in house; host or cells: baculovirus / insect cells
Description: as §1, §2
The expressed proenzyme was first purified over a heparin agarose column, and then over a chelating zinc chloride column. The proenzyme was then activated by APMA for use in the assay. Further details on baculovirus expression systems may be found in, for example, Luckow et al., J. Virol., 67, 4566-79 (1993). See also, O'Reilly et al, Baculovirus Expression Vectors: A Laboratory Manual (W. H. Freeman and Co., New York, N.Y., 1992). See also, King et al., The Baculovirus Expression System: A Laboratory Guide (Chapman & Hall, London, England, 1992).
as §3, §4, §5, §6, §7, §8

[1] = value outside parentheses (Ki in parenthesis)

| IC50 (Human recombinant MMP-2; [1]) [nM] | IC50 (Human recombinant MMP-13; [1]) [nM] | IC50 (Human recombinant MMP-2; value outside parenthesis) [nM] | IC50 (Human recombinant MMP-13; value outside parenthesis) [nM] | Compound | other results |
| --- | --- | --- | --- | --- | --- |
| 258 | 10 | – | – | O=C(NCCCOc1ccc(S(=O)(=O)C2(C(=O)NO)CCOCC2)cc1)c1cc2cccc(O)c2cc1O [Example 379] | – |
| 2700 | 195 | – | – | COc1ccc(SCC(C)(C)COc2ccc(S(=O)(=O)C3(C(=O)NO)CCOCC3)cc2)cc1 [Example 430] | – |
| 900 | 690 | – | – | COCC(C)(C)COc1ccc(S(=O)(=O)C2(C(=O)NO)CCOCC2)cc1 [Example 455] | – |
| > 10000 | 3310 | – | – | O=C(C1CCCCC1)N1CC[C@@H](Oc2ccc(S(=O)(=O)C3(C(=O)NO)CCOCC3)cc2)C1 [Example 425] | – |
| 9000 | 1590 | – | – | O=C(c1ccc(OC(F)(F)F)cc1)N1CC[C@@H](Oc2ccc(S(=O)(=O)C3(C(=O)NO)CCOCC3)cc2)C1 [Example 423] | – |
| 50 | 45 | – | – | COc1ccc(C(=O)NCCOc2ccc(S(=O)(=O)C3(C(=O)NO)CCOCC3)cc2)cc1 [Example 393] | – |
| 2.2 | 14.8 | – | – | O=C(NO)C1(S(=O)(=O)c2ccc(OCCCCCO)cc2)CCOCC1 [Example 452] | – |
| 120 | 4 | – | – | COc1ccc(S(=O)(=O)NCCCOc2ccc(S(=O)(=O)C3(C(=O)NO)CCOCC3)cc2)cc1 [Example 419] | – |
| 47 | 0.5 | – | – | O=C(NCCCOc1ccc(S(=O)(=O)C2(C(=O)NO)CCOCC2)cc1)c1ccc2ccccc2n1 [Example 389] | – |
| 640 | 12 | – | – | COc1ccc(OC)c(S(=O)(=O)N2CC(Oc3ccc(S(=O)(=O)C4(C(=O)NO)CCOCC4)cc3)C2)c1 [Example 484] | – |
| 313 | 41 | – | – | O=C(NO)C1(S(=O)(=O)c2ccc(OCCCN3CCCc4ccccc43)cc2)CCOCC1 [Example 412] | – |

Further lines, the molecule ahead of its results:

| Compound | IC50 (Human recombinant MMP-2; [1]) [nM] | IC50 (Human recombinant MMP-13; [1]) [nM] | IC50 (Human recombinant MMP-2; value outside parenthesis) [nM] | IC50 (Human recombinant MMP-13; value outside parenthesis) [nM] | other results |
| --- | --- | --- | --- | --- | --- |
| COc1cc2c(cc1OC)C(c1ccccc1)NC(C(=O)OCCCCOc1ccc(S(=O)(=O)C3(C(=O)NO)CCOCC3)cc1)C2 (centres unmarked) [Example 336] | 301 | 19.8 | – | – | – |
| COc1cc2c(cc1OC)CN(C(=O)NCCCOc1ccc(S(=O)(=O)C3(C(=O)NO)CCOCC3)cc1)CC2 [Example 496] | – | – | – | – | IC50 (Human recombinant MMP-2; value outside parentheses): 242 nM; IC50 (Human recombinant MMP-13; value outside parentheses): 8.4 nM |
| O=C(NCCCOc1ccc(S(=O)(=O)C2(C(=O)NO)CCOCC2)cc1)c1cccc2ccccc12 [Example 375] | 425 | 17 | – | – | – |
| CCOc1ccc(-c2nnn(CCCOc3ccc(S(=O)(=O)C4(C(=O)NO)CCN(CCOC)CC4)cc3)n2)cc1 [Example 156] | – | – | 32.1 | 1 | – |
| O=C(Cc1nnn(Cc2ccccc2)n1)NCCOc1ccc(S(=O)(=O)C2(C(=O)NO)CCOCC2)cc1 [Example 565] | – | – | – | – | IC50 (Human recombinant MMP-2; value outside parentheses): 14 nM; IC50 (Human recombinant MMP-13; value outside parentheses): 1.6 nM |
| CC(C)c1ccc(NC(=O)CCCOc2ccc(S(=O)(=O)C3(C(=O)NO)CCOCC3)cc2)cc1 [Example 227] | – | – | 2.7 | 0.2 | – |
| Cc1cc(C)nc(SCCOc2ccc(S(=O)(=O)C3(C(=O)NO)CCOCC3)cc2)n1 [Example 283] | – | – | 186 | 29.3 | – |
| COc1ccc(/C(C)=C/CCCOc2ccc(S(=O)(=O)C3(C(=O)NO)CCOCC3)cc2)c(OC)c1 [Example 345] | 271 | 14.3 | – | – | – |
| COc1ccc2cc(C(=O)CCCCOc3ccc(S(=O)(=O)C4(C(=O)NO)CCN(C5CC5)CC4)cc3)ccc2c1 [Example 265] | – | – | 40 | 0.2 | – |
| O=C(CCCOc1ccc(S(=O)(=O)C2(C(=O)NO)CCOCC2)cc1)c1ccccc1-c1ccccc1 [Example 300] | 12.5 | 6.7 | – | – | – |
| O=C(NCCCOc1ccc(S(=O)(=O)C2(C(=O)NO)CCOCC2)cc1)c1cc2cc(O)ccc2cc1O [Example 378] | 655 | 2.7 | – | – | – |
| O=C(NO)C1(S(=O)(=O)c2ccc(OCCCc3nc4cc5ccccc5cc4o3)cc2)CCOCC1 [Example 313] | 18.1 | < 0.1 | – | – | – |
| COCCN1CCC(C(=O)NO)(S(=O)(=O)c2ccc(OCCCn3nnc(-c4ccc5c(c4)OCO5)n3)cc2)CC1 [Example 146] | – | – | 11.1 | 0.4 | – |
| O=C1N(CCCOc2ccc(S(=O)(=O)C3(C(=O)NO)CCOCC3)cc2)CCN1c1ccccc1 [Example 196] | – | – | 32.2 | 11.4 | – |
| CC(C)(C)c1cccc(NC(=O)CCCOc2ccc(S(=O)(=O)C3(C(=O)NO)CCOCC3)cc2)c1 [Example 572] | – | – | – | – | IC50 (Human recombinant MMP-2; value outside parentheses): 37.3 nM; IC50 (Human recombinant MMP-13; value outside parentheses): 4.7 nM |
| O=C(NO)C1(S(=O)(=O)c2ccc(OCCCc3csc(-c4ccccc4)n3)cc2)CCOCC1 [Example 107] | – | – | 34 | 5.5 | – |
| CC(C)N(Cc1ccc(C(=O)CCCOc2ccc(S(=O)(=O)C3(C(=O)NO)CCOCC3)cc2)cc1)C(C)C [Example 298] | 11.9 | 18.1 | – | – | – |
| COCCN1CCC(C(=O)NO)(S(=O)(=O)c2ccc(OCCCn3nnc(-c4cccs4)n3)cc2)CC1 [Example 143] | – | – | 4.9 | 1.4 | – |
| COCCN1CCC(C(=O)NO)(S(=O)(=O)c2ccc(OCCCn3nc(C(F)(F)F)cc3C(F)(F)F)cc2)CC1 [Example 253] | – | – | 1450 | 32.4 | – |
| COc1ccc(C(=O)NCCCCNc2ccc(S(=O)(=O)C3(C(=O)NO)CCOCC3)cc2)cc1 [Example 331] | 386 | 261 | – | – | – |
| O=C(NCCOc1ccc(S(=O)(=O)C2(C(=O)NO)CCOCC2)cc1)c1nc2ccccc2s1 [Example 589] | – | – | – | – | IC50 (Human recombinant MMP-2; value outside parentheses): 9.9 nM; IC50 (Human recombinant MMP-13; value outside parentheses): 0.4 nM |
| O=C(NO)C1(S(=O)(=O)c2ccc(OCCc3cccc(-c4cncnc4)c3)cc2)CCOCC1 [Example 521] | – | – | – | – | IC50 (Human recombinant MMP-2; value outside parentheses): 62 nM; IC50 (Human recombinant MMP-13; value outside parentheses): 5.8 nM |
| O=C(NO)C1(S(=O)(=O)c2ccc(OCCCc3ccc(-c4ccccc4)cc3)cc2)CCOCC1 [Example 270] | – | – | 522 | 8.1 | – |
| CC(C)CCc1cccc(CCCOc2ccc(S(=O)(=O)C3(C(=O)NO)CCOCC3)cc2)c1 [Example 96] | – | – | 39.1 | 15.3 | – |
| COCCN1CCC(C(=O)NO)(S(=O)(=O)c2ccc(OCCCn3ccc(-c4ccc(OC)cc4)n3)cc2)CC1 [Example 223] | – | – | 69.7 | 11.9 | – |
| CC(C)(C)c1ccc(C(=O)NCCCOc2ccc(S(=O)(=O)C3(C(=O)NO)CCOCC3)cc2)cc1 [Example 374] | 800 | 8 | – | – | – |
| O=C(CCCOc1ccc(S(=O)(=O)C2(C(=O)NO)CCOCC2)cc1)c1ccc2ccccc2c1 [Example 299] | 3.2 | 0.1 | – | – | – |
| O=C(NCCSc1ccc(S(=O)(=O)C2(C(=O)NO)CCOCC2)cc1)c1cc2ccccc2[nH]1 [Example 593] | – | – | – | – | IC50 (Human recombinant MMP-2; value outside parentheses): 6.5 nM; IC50 (Human recombinant MMP-13; value outside parentheses): 15.6 nM |
| CC(C)Oc1cccc(NC(=O)CCCOc2ccc(S(=O)(=O)C3(C(=O)NO)CCOCC3)cc2)c1 [Example 583] | – | – | – | – | IC50 (Human recombinant MMP-2; value outside parentheses): 15.7 nM; IC50 (Human recombinant MMP-13; value outside parentheses): 1.6 nM |
